The text below walks through data of patent publication US20080063601A1, “Compositions and methods relating to polycystic kidney disease” (priority 2004, published 2008).

Series [1] deals with HeLa cells. Kind of series: [3H]-triptolide competition binding in intact HeLa cells. How it is done:
To gain insight into triptolide's mechanism of action Applicant sought to determine its specific binding activity utilizing a system employing [^3H]-triptolide. In addition to competition with 1 μM or 10 μM unlabeled triptolide, Applicant also measured the binding affinities of triptolide analogs (FIG. 3A). These analogs have been previously described and differ structurally from triptolide in the hydrolysis of the 12,13 epoxide (2), and formation of the ketone at the C-14 hydroxyl (3) (FIG. 3A). […] The effective interaction of these analogs with a presumed triptolide binding entity led us to their use in subsequent experiments addressing the mode of triptolide's biological functions.
Labeling studies were performed by the addition of approximately 30 nM [^3H]-triptolide directly into the culture media for one hour at 37° C. For cold competition studies, 1 μM triptolide was incubated with the cells for one hour before or after the addition of [^3H]-triptolide. Triptolide analog studies followed a similar protocol where concentrations used for competition were either 1 or 10 μM added before [^3H]-triptolide. Medium was removed and cells were washed 3× in cold PBS. Total cell lysates were prepared (150 mM NaCl, 50 mM Tris-HCl pH 7.4, 1 mM EDTA, 1% Triton X-100, and Complete™ protease inhibitors (Roche)) and protein was quantitated before measuring the [^3H]-triptolide binding activity via liquid scintillation.

In series [2] the test system is HeLa cells. Kind of series: in vitro. It is filed as cell-based. Conditions: HeLa, 100 nM. An excerpt:
(§1) To investigate further the role of calcium in triptolide function Applicant utilized a system to buffer intracellular calcium levels. Various GFP-parvalbumin (PV) fusion proteins can be specifically localized to either the nucleus or the cytoplasm through a nuclear localization or exclusion signal (NLS or NES, respectively) (Pusl, et al., 2002, J Biol Chem 277, 27517-27527). Parvalbumin has two EF-hand calcium binding domains and can efficiently reduce the availability of free calcium in the cell (Pauls, et al., 1996, Biochim Biophys Acta 1306, 39-54). HeLa cells were transiently transfected with the GFP vector control, NES-PV-GFP, or NLS-PV-GFP in calcium containing media and efficient expression of each construct was determined by GFP localization (FIG. 6A). Normal cell growth was first assessed throughout 48 hours with each of the constructs. […] For triptolide experiments, cells were transfected and allowed to express the construct for 24 hours before the addition of 100 nM triptolide. After 24 and 48 hours of treatment, cells were assessed for viability. […] Since the parvalbumin buffering experiments are done in the presence of extracellular calcium, the cell can operate normally in that intracellular calcium stores may be refilled. It is reasonable to expect then if calcium homeostasis is being affected (i.e., cytosolic calcium levels increase) by triptolide, then parvalbumin would eventually reach a saturation point. This might explain why the rescue from apoptosis is transient through the 24 hour time point but is lost by 48 hours.
(§2) All parvalbumin-GFP constructs and control vectors (Pusl, et al., 2002, J Biol Chem 277, 27517-27527) were a gift of Anton Bennett (Yale University). Hela cells were plated out on 6- or 12-well plates at a density of 5×10^5 or 1×10^5, respectively. […] Cell viability was assessed at 24 and 48 hours post triptolide addition by morphology and trypan blue dye exclusion.

A further series in a line: in vitro. As to conditions: human. It is filed as cell-based.
Excerpt: as §1, §2

As to `CC(C)[C@]12O[C@H]1[C@@H]1O[C@]13[C@]1(O[C@H]1C[C@H]1C4=C(CC[C@@]13C)C(=O)OC4)[C@@H]2O` [triptolide], the “nature of triptolide binding (out-competed by subsequent excess unlabeled triptolide)” value in the series on HeLa cells [1] (1 μM cold triptolide after [3H]-triptolide) was “reversible”. Further, the “displacement of / competition for [3H]-triptolide binding” value in the series on HeLa cells [1] (1 or 10 μM unlabeled competitor for 1 h before approx. 30 nM [3H]-triptolide for 1 h) was “significantly competed”. Also, the “cell death in all transfection conditions” value with HeLa cells [2] (by 48 hours) was “complete cell death”. The apoptosis in the series on HeLa cells [2] (cytosolic parvalbumin (NES-PV-GFP), 24 hours) is 15-20%. The same molecule came in with a cytotoxicity at 24 h, 0.1 µM in the series “in vitro” of 50%.
